Publication PMC3433276 (Bioorganic & medicinal chemistry letters, 2012)

Key:
[1] = tested on: panel of multidrug-resistant HIV-1 strains; test: microbe, parasite or virus in culture; format: cell-based; conditions: for fold-changes in EC50: against all MDR HIV-1 viruses compared to wild type
HIV-1LAI = test: Antiviral MTT assay in MT-2 cells exposed to HIV-1LAI; format: cell-based; conditions: Human immunodeficiency virus 1, MT2

SMILES | EC50 ([1]; Human immunodeficiency virus 1) | fold-changes in EC50 [1] | IC50 (HIV-1LAI)
COC(=O)N[C@H]1CO[C@@H]2C[C@H](OC(=O)N[C@@H](Cc3ccccc3)[C@H](O)CN(CC(C)C)S(=O)(=O)c3ccc(OC)cc3)C[C@H]12 [Inhibitor 3d] | 15 to 24 nM | increased by a factor of at least three | 
CC(C)CN(C[C@@H](O)[C@H](Cc1ccccc1)NC(=O)O[C@H]1CCOC1)S(=O)(=O)c1ccc(N)cc1 [amprenavir] |  |  | 30 nM
COC(=O)N[C@@H]1CO[C@@H]2C[C@H](OC(=O)N[C@@H](Cc3ccccc3)[C@H](O)CN(CC(C)C)S(=O)(=O)c3ccc(OC)cc3)C[C@H]12 [Inhibitor 3c] |  | < 3 | 
